Measurements published in ChEMBL document CHEMBL3585249, “Strongylophorines, meroditerpenoids from the marine sponge Petrosia corticata, function as proteasome inhibitors” (Bioorg Med Chem Lett, 2015).

Experiment: Inhibition of human erythrocyte 20S proteasome assessed as reduction in chymotrypsin-like activity pre-incubated for 10 mins before addition of Suc-Leu-Leu-Val-Tyr-MCA fluorogenic substrate by fluorescence based assay

IC50 [µM] | SMILES
> 100 | C[C@@]12CC[C@@H]3[C@]4(CCC[C@@]3(C)C(=O)OC4)[C@H]1CC[C@]1(C)Oc3ccc(O)cc3C[C@@H]21 [strongylophorine-2]
19 | CC(=O)[C@@]1(C)CCC[C@]2(C)[C@H]3CC[C@]4(C)Oc5ccc(O)cc5C[C@H]4[C@]3(C)CC[C@H]21 [strongylophorine-4]
8.4 | C[C@@]12CC[C@@H]3[C@]4(CCC[C@]3(C)C(=O)OC4)[C@H]1CC[C@](C)(O)[C@H]2Cc1cc(O)ccc1O [strongylophorine-8]

Continued, compound first:

SMILES | IC50 [µM]
CO[C@H]1OC[C@]23CCC[C@@]1(C)C2CC[C@]1(C)C3CC[C@]2(C)Oc3ccc(O)cc3CC12 (some centres undefined) | 6.6
CCO[C@H]1OC[C@]23CCC[C@@]1(C)C2CC[C@]1(C)C3CC[C@]2(C)Oc3ccc(O)cc3CC12 (some centres undefined) | 9.3
C[C@@]12CC[C@@H]3[C@]4(CCC[C@]3(C)C(O)OC4)[C@H]1CC[C@](C)(O)[C@H]2Cc1cc(O)ccc1O (some centres undefined) | 2.1
C[C@@]12CC[C@@H]3[C@]4(CCC[C@]3(C)C(O)OC4)[C@H]1CC[C@]1(C)Oc3ccc(O)cc3C[C@@H]21 (some centres undefined) | 3.6
C[C@]12CCC[C@](C)(C(=O)O)[C@@H]1CC[C@]1(C)[C@@H]2CC[C@]2(C)Oc3ccc(O)cc3C[C@@H]12 [Strongylophorin-3] | 9.5
CC1(C)CCC[C@]2(C)[C@H]3CC[C@]4(C)Oc5ccc(O)cc5C[C@H]4[C@]3(C)CC[C@@H]12 [Strongylophorin-22] | > 100
